pEC50: −log10 of the molar value. Where “and” joins values, the source holds several entries; their conditions need not be identical. Identical values can stand only once. Like-named read-outs stand apart in the source and are kept apart here.
Key:
Drosophila OR13a = target: T1, Drosophila OR13a (Drosophila melanogaster, UniProt Q9VXL0); assay: Calcium ion fluorescence (GCaMP6) assay, OR13a stable HEK293 cell line; format: cell-based; conditions: for dose-response, AVERAGE response: N 3
T1 construct: expressed in transfected cells
T1 sequence (Q9VXL0 1-418): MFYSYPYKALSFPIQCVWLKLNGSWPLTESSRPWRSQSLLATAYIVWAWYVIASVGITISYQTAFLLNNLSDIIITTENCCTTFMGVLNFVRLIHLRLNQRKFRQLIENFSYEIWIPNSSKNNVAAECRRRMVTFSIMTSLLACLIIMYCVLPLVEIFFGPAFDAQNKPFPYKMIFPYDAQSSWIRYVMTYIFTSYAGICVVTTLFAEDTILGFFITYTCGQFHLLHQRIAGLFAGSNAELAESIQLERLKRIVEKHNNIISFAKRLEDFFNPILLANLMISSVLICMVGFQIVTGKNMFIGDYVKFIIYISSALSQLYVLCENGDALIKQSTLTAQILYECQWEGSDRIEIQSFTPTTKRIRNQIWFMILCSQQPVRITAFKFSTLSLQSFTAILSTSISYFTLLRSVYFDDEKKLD
T1 sequence (Q9VNB5 1-486 partner): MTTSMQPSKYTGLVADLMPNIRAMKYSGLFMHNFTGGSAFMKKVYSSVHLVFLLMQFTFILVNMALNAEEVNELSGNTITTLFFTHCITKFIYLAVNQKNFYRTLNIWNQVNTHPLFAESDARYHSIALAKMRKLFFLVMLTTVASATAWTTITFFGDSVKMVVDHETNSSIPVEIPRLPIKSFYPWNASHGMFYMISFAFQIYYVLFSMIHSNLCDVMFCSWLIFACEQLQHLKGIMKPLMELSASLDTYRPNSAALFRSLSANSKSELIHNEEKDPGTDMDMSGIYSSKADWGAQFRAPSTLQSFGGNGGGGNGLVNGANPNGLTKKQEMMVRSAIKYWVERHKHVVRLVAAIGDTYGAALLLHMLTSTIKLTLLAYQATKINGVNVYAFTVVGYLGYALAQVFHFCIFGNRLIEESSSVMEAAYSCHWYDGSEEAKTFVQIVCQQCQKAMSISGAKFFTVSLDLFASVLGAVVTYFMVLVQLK
In short: (§1)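 HEK293 lines stably expressing each Drosophila OR with GCaMP6, doxycycline-induced (1 μg/mL) 48 or 72 h. Fluorescence recorded 5 s baseline then 30 s after VOC injection at pH 7.3; ΔF=(FMAX−F0)/F0, normalized to 50 µM VUAA1 response per line, triplicate wells averaged; concentration series 0.01–100 μM.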

Drosophila OR47a = target: T2, Drosophila OR47a (Drosophila melanogaster, UniProt P81921); assay: Calcium ion fluorescence (GCaMP6) assay, OR47a stable HEK293 cell line; format: cell-based; conditions: for Average response: mean of biological replicates; for response intensity: of VUAA1 response
T2 construct: expressed in transfected cells
T2 sequence (P81921 1-385): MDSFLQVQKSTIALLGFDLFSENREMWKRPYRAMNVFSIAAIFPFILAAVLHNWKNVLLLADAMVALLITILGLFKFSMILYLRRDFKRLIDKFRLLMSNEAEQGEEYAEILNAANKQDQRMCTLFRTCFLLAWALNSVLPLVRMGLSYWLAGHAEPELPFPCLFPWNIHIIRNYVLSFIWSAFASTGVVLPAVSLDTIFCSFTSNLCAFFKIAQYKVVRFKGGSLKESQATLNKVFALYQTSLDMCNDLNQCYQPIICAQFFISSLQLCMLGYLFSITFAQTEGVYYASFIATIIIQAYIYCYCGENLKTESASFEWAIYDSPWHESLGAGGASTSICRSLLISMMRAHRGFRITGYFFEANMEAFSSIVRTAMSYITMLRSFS
T2 sequence (Q9VNB5 1-486 partner): T1 sequence (Q9VNB5 1-486 partner)
In short: as §1

[1] = HEK293, read-out: OR13a Average response (VUAA1-normalized), 1 μM VOC, 50 μM VUAA1 = 1, responses not exceeding 0.05 considered 0
[2] = HEK293, read-out: OR13a Average response (VUAA1-normalized), 10 μM VOC, 50 μM VUAA1 = 1, responses not exceeding 0.05 considered 0
[3] = HEK293, read-out: OR13a Average response (VUAA1-normalized), 100 μM VOC, 50 μM VUAA1 = 1, responses not exceeding 0.05 considered 0
[4] = HEK293, read-out: OR13a response (VUAA1-normalized response), VOC concentration 1 μM
[5] = HEK293, read-out: OR13a response (VUAA1-normalized response), VOC concentration 10 μM
[6] = HEK293, read-out: OR13a response (VUAA1-normalized response), VOC concentration 100 μM
[7] = concentration 1, normalized fluorescence change, values below 0.05 threshold given as 0
[8] = concentration 10, normalized fluorescence change, values below 0.05 threshold given as 0
[9] = concentration 100, normalized fluorescence change, values below 0.05 threshold given as 0
[10] = the 13th table, VOC concentration 2.5
[11] = the 13th table, VOC concentration 5
[12] = the 13th table, VOC concentration 25
[13] = the 13th table, VOC concentration 50
[14] = the 13th table, VOC concentration 100
[15] = HEK293, read-out: OR47a response (VUAA1-normalized response)
[16] = OR47a cell line, odorant cc. 1 µM
[17] = OR47a cell line, odorant cc. 10 µM
[18] = OR47a cell line, odorant cc. 100 µM
[19] = ligand concentration 1 (unit not given), threshold 0.05, below shown as 0
[20] = ligand concentration 10 (unit not given), threshold 0.05, below shown as 0
[21] = ligand concentration 100 (unit not given), threshold 0.05, below shown as 0
[22] = HEK293, read-out: OR47a Average response (VUAA1-normalized)

| Compound | activation at 1 µM (Drosophila OR13a; [1]) | activation at 10 µM (Drosophila OR13a; [2]) | activation at 100 µM (Drosophila OR13a; [3]) | activation at 1 µM (Drosophila OR13a; [4]) | activation at 10 µM (Drosophila OR13a; [5]) | activation at 100 µM (Drosophila OR13a; [6]) | DF norm AVERAGE OR13a (Drosophila OR13a; [7]) | DF norm AVERAGE OR13a (Drosophila OR13a; [8]) | DF norm AVERAGE OR13a (Drosophila OR13a; [9]) | activation at 1 µM (Drosophila OR47a; [15]) | activation at 10 µM (Drosophila OR47a; [15]) | activation at 100 µM (Drosophila OR47a; [15]) | Average response (Drosophila OR47a; [16]) | Average response (Drosophila OR47a; [17]) | Average response (Drosophila OR47a; [18]) | DF norm AVERAGE OR47a (Drosophila OR47a; [7]) | DF norm AVERAGE OR47a (Drosophila OR47a; [8]) | DF norm AVERAGE OR47a (Drosophila OR47a; [9]) | DF norm AVERAGE OR13a (Drosophila OR13a; [19]) | DF norm AVERAGE OR13a (Drosophila OR13a; [20]) | also measured |
| --- | --- | --- | --- | --- | --- | --- | --- | --- | --- | --- | --- | --- | --- | --- | --- | --- | --- | --- | --- | --- | --- |
| C=CC(O)C/C=C\CC (centres unmarked) [(5Z)-octa-1,5-dien-3-ol] | 0% | 15% | 37% | 0% | 15% | 37% | 0 | 0.1531 | 0.3701 | 0% | 0% | 0% | 0.00 | 0.00 | 0.00 | 0 | 0 | 0 |  |  | pEC50 (Drosophila OR13a; EC50, fitted average curve, the 13th table, fit to the average curve, n 0.854956): 5.14; pEC50 (Drosophila OR13a; EC50, fitted parameter per biological replicate, the 13th table, OR13a D-R (5Z)-octa-1,5-dien-3-ol, individual replicate fits, MIN 0, n 1): 5.00 and 5.52 and 5.23; pEC50 (Drosophila OR13a; EC50, fitted parameter per biological replicate, the 13th table, individual replicate fits): 5.00 and 5.52 and 5.23; dose-response, response per biological replicate (Drosophila OR13a; [10]): 0 and 0.07532 and 0.2134; dose-response, AVERAGE response (Drosophila OR13a; [10]): 0.09623; dose-response, response per biological replicate (Drosophila OR13a; [11]): 0.1122 and 0.07908 and 0.2962; dose-response, AVERAGE response (Drosophila OR13a; [11]): 0.1625; dose-response, response per biological replicate (Drosophila OR13a; [12]): 0.1336 and 0.1252 and 0.4462; dose-response, AVERAGE response (Drosophila OR13a; [12]): 0.235; dose-response, response per biological replicate (Drosophila OR13a; [13]): 0.1449 and 0.1487 and 0.5376; dose-response, AVERAGE response (Drosophila OR13a; [13]): 0.2771; dose-response, response per biological replicate (Drosophila OR13a; [14]): 0.2093 and 0.133 and 0.6441; dose-response, AVERAGE response (Drosophila OR13a; [14]): 0.3288; MAX, fitted average curve (Drosophila OR13a; the 13th table, fit to the average curve, n 0.854956): 0.3433; MAX, fitted parameter per biological replicate (Drosophila OR13a; the 13th table, individual replicate fits): 0.2031 and 0.1439 and 0.6228 and 0.37 |
| Cc1ccc(C)c(C)c1 [1,2,4-trimethylbenzene] | 0% | 0% | 0% | 0% | 0% | 0% | 0 | 0 | 0 | 0% | 0% | 0% | 0.00 | 0.00 | 0.00 | 0 | 0 | 0 |  |  |  |
| COC(=O)c1ccccc1O [methyl salicylate] | 0% | 1% | 21% |  |  |  |  |  |  |  |  |  | 0.11 | 0.00759 | 0.14 |  |  |  | 0 | 0 | OR13a response (VUAA1-normalized) at 1 μM (Drosophila OR13a; OR13a cell line, VOC concentration 1 μM): 0.00; OR13a response (VUAA1-normalized) at 10 μM (Drosophila OR13a; OR13a cell line, VOC concentration 10 μM): 0.00; OR13a response (VUAA1-normalized) at 100 μM (Drosophila OR13a; OR13a cell line, VOC concentration 100 μM): 0.21; DF norm AVERAGE OR13a (Drosophila OR13a; [21]): 0.213; activation at 1 µM (Drosophila OR47a; [22]): 11%; activation at 10 µM (Drosophila OR47a; [22]): 1%; activation at 100 µM (Drosophila OR47a; [22]): 14%; OR47a response (VUAA1-normalized) at 1 μM (Drosophila OR47a; OR47a cell line, VOC concentration 1 μM): 0.11; OR47a response (VUAA1-normalized) at 10 μM (Drosophila OR47a; OR47a cell line, VOC concentration 10 μM): 0.00; OR47a response (VUAA1-normalized) at 100 μM (Drosophila OR47a; OR47a cell line, VOC concentration 100 μM): 0.14; DF norm AVERAGE OR47a (Drosophila OR47a; [19]): 0.1126; DF norm AVERAGE OR47a (Drosophila OR47a; [20]): 0; DF norm AVERAGE OR47a (Drosophila OR47a; [21]): 0.1364 |
| CC(=O)OCCC(C)C [isopentyl acetate] | 3% | 4% | 0% | 0% | 0% | 0% |  |  |  | 0% | 12% | 18% | 0.00 | 0.12 | 0.18 |  |  |  | 0 | 0 | DF norm AVERAGE OR13a (Drosophila OR13a; [21]): 0; activation at 1 µM (Drosophila OR47a; [22]): 0%; activation at 10 µM (Drosophila OR47a; [22]): 12%; activation at 100 µM (Drosophila OR47a; [22]): 18%; response intensity (Drosophila OR47a; OR47a cell line, 10 μM): 12%; response intensity (Drosophila OR47a; OR47a cell line, 100 μM): 18%; DF norm AVERAGE OR47a (Drosophila OR47a; [19]): 0; DF norm AVERAGE OR47a (Drosophila OR47a; [20]): 0.1209; DF norm AVERAGE OR47a (Drosophila OR47a; [21]): 0.1752 |
| C=C(C)[C@H]1CC=C(C)CC1 [limonene] |  |  |  |  |  |  |  |  |  |  |  |  | 0.0214 | 0.00 | 0.00 |  |  |  | 0 | 0 | OR13a Average response (VUAA1-normalized) (Drosophila OR13a; 1 μM VOC, 50 μM VUAA1 = 1, responses not exceeding 0.05 considered 0): 0.00; OR13a Average response (VUAA1-normalized) (Drosophila OR13a; 10 μM VOC, 50 μM VUAA1 = 1, responses not exceeding 0.05 considered 0): 0.00; OR13a Average response (VUAA1-normalized) (Drosophila OR13a; 100 μM VOC, 50 μM VUAA1 = 1, responses not exceeding 0.05 considered 0): 0.00; OR13a response (VUAA1-normalized response) (Drosophila OR13a; VOC concentration 1 μM): 0.00; OR13a response (VUAA1-normalized response) (Drosophila OR13a; VOC concentration 10 μM): 0.00; OR13a response (VUAA1-normalized response) (Drosophila OR13a; VOC concentration 100 μM): 0.00; DF norm AVERAGE OR13a (Drosophila OR13a; [21]): 0; OR47a response (VUAA1-normalized response) (Drosophila OR47a; VOC concentration 1 μM): 0.00; OR47a response (VUAA1-normalized response) (Drosophila OR47a; VOC concentration 10 μM): 0.00; OR47a response (VUAA1-normalized response) (Drosophila OR47a; VOC concentration 100 μM): 0.00; DF norm AVERAGE OR47a (Drosophila OR47a; [19]): 0; DF norm AVERAGE OR47a (Drosophila OR47a; [20]): 0; DF norm AVERAGE OR47a (Drosophila OR47a; [21]): 0 |
| Cc1ccc(O)cc1 [4-methylphenol] | 4.62% | 2% | 1.38% | 0% | 0% | 0% | 0 | 0 | 0 | 10% | 0% | 5.42% | 0.10 | 0.0217 | 0.0542 | 0.1 | 0 | 0.05422 |  |  |  |
